Data published in publication PMC11903733 (Frontiers in Pharmacology, 2025).

Experiment: Toxicity in xenografted mice: body weight, serum liver and kidney indices
Type: in vivo, BALB/c nude mice
Description: Given the potent inhibitory effect of LTM-1 on MV-4-11 cell proliferation in vitro, a previously reported xenograft animal model was established to measure the anti-tumor growth and development effects of LTM-1 ([Zhou et al., 2022]). The animal experimental design of this study was reviewed and confirmed by the Ethics Committee of China Pharmaceutical University. The experimental procedures complied with the ARRIVE guidelines (https://arriveguidelines.org/). Female BALB/c nude mice aged 4–6 weeks were purchased from Changzhou Cave Animal Co., Ltd. (Changzhou, China). Mice were housed in a specific pathogen-free (SPF) environment, where the temperature was precisely regulated to 25°C ± 2°C, the relative humidity was kept at 50% ± 5%, and a strict 12-h light-dark cycle was maintained. A 200 μL suspension of MV-4-11 cells (1 × 10^6 cells) was injected subcutaneously into the mice. […] The mice were administered drugs via intraperitoneal injection daily, with a total treatment period of 15 days. Mouse weight and tumor volume were measured every 3 days. The tumor volume was calculated using the formula (c × c × d)/2 (where c represents the smallest diameter, and d represents the largest diameter). When the animals could no longer access food and/or the average tumor diameter exceeded 15 mm, the mice were anesthetized with 2.5% isoflurane and euthanized by cervical dislocation to minimize suffering. In addition, the liver and kidney index levels were measured using an automatic biochemical analyzer to evaluate the toxic effects of LTM-1 on mice.

[1] = compared to the vehicle control group

O=S(=O)(c1ccc(C(O)CO)c(C(F)(F)F)c1)N1CCc2cc(C3CC3NCC3CCNCC3)ccc21 (stereo not drawn) [LTM-1]
body weight of mice (10 mg/kg intraperitoneal daily, 15 days, versus vehicle group): no significant differences
liver and kidney function indices (LTM-1 treated MV-4-11 xenografted mice): did not induce significant changes
alanine aminotransferase (ALT) level in mouse serum [1]: no significant changes
aspartate aminotransferase (AST) level in mouse serum [1]: no significant changes
blood urea nitrogen (BUN) level in mouse serum [1]: no significant changes
creatinine (CRE) level in mouse serum [1]: no significant changes
